Test results published in patent US7078411B2, “Phospholipid transfer protein (PLTP) and cholestoral metabolism” (priority 2001, dated 2006).
Entries after “also recorded” stand apart in the source; their conditions may differ.

Assays:
[1] = test system: cultured tumor cell lines; conditions: Table 1
From the text: To determine whether the induction of PLTP expression is topotecan specific, we evaluated the effects of camptothecin and some of its derivatives, and compared them against some protoberberines, which are a new class of organic cations that are dual poisons of topoisomerases I and II (3–5). Berberine is an isoquinoline plant alkaloid.

PLTP expression = assay: Northern blot analysis of PLTP expression in HepG2 cells; type: cell-based, human; conditions: for induction of PLTP expression: 500 nM, 24 hrs (FIG. 5)
Procedure: Dose response induction of PLTP was performed in HepG2 cells for 24 hrs. RNAs isolated were separated on agarose gel and then transferred to nitrocellulose filters for hybridization with a labeled full-length PLTP cDNA probe. […] Lane 1, control (untreated); 2, 1 nM; 3, 20 nM; 4, 100 nM; 5, 500 nM; and 6, 1,000 nM topotecan expression. […] This may be a result of the inhibition of transcription by topotecan at the higher dosage.
HepG2 cells were treated with the indicated drugs (500 nM) for 24 hrs. RNAs were then harvested and fractionated on agarose gel and then transferred to nitrocellulose filters for hybridization with a full length PLTP cDNA probe.
We first examined topotecan-induced PLTP expression in an independent dose response study by Northern blot analysis. […] This may be a result of the inhibition of transcription by topotecan at the higher dosage. […]

PLTP promoter [2] = type: cell-based, human; conditions: HepG2/PLTPpLuc; for specificity of induction of PLTP promoter activity: 24 hours (FIG. 14)
From the text: FIG. 11 is a schematic drawing of the promoter of the phospholipid transfer protein (PLTP) gene. A 1.6 kb fragment of the PLTP gene promoter derived from a BAC clone was PCR amplified and then subcloned into a modified pXP1 luciferase reporter plasmid vector. The modified vector contained the neomycin resistance marker gene.
HepG2 cells were permanently transfected with the construct shown in FIG. 11, and selected for resistance to G418, an aminoglycoside antibiotic. Clone 1, a G418 resistant cell line isolated from the selection, designated HepG2/PLTPpLuc, was utilized for testing the effect of topotecan on induction of PLTP promoter activity. The transfectant cell line, HepG2/PLTPpLuc, was treated with topotecan (500 nM) for approximately 24 hours. Cell extracts were obtained at the end of incubation and the luciferase assay was performed with them. The luciferase activity of the topotecan treated cells (+) was plotted relative to the control (−).
FIG. 13 illustrates the time course analysis of induction of PLTP promoter activity by topotecan in HepG2/PLTPpLuc cells. The HepG2/PLTPpLuc cells were treated with 500 nM of topotecan. Cell extracts were obtained at various time points following treatment with topotecan (0, 4, 8, 12, 16, and 24 hours) and assayed for luciferase activity, which was plotted as a function of time.
The HepG2/PLTPpLuc cells were treated with either topotecan, taxol, or melphalan for 24 hours. Cell extracts were then obtained for the luciferase assay.
The luciferase reporter plasmid was constructed by cloning the PLTP promoter derived from a BAC clone into the pXP2 luciferase reporter vector. A neomycin selectable marker gene driven by the CMV early promoter was further subcloned into the PLTP-luciferase reporter plasmid (FIG. 11).
Approximately 10 μg of the PLTP-luciferase reporter plasmid was transfected using lipofectamine into HepG2 cells for about 4 hrs. Cells were washed and then further cultured and selected in the presence of 1.6 mg/ml of G418 for neomycin resistance. Media were changed every 3 days with fresh G418 added at the above concentration. Approximately 14 days later, colonies that emerged from the selection were picked using cloning cylinders and the clones were transferred to 24-well cluster dishes for further culturing and selection.
At confluence, cells were next transferred to 12-well dishes and aliquots were also transferred to 24-well dishes for screening with topotecan for induction of the PLTP promoter activity. Luciferase assay was performed using a standard luciferase assay kit from Promega.

PLTP promoter [3] = assay: PLTP promoter-luciferase reporter, transient transfection in HepG2 cells (dual luciferase assay); type: cell-based, human; conditions: 24 hrs
Procedure: FIGS. 6A and 6B depict the transactivation of the PLTP promoter by topotecan. FIG. 6A is a schematic drawing of the PLTP gene promoter-luciferase reporter construct. The promoter was PCR amplified from a BAC clone containing the genomic sequence for the human PLTP gene. FIG. 6B graphically presents the results calibrated in terms of luciferase activity, of a study where HepG2 cells were transfected with the PLTP promoter-luciferase reporter and were then treated with various doses of topotecan for 24 hrs. Cell extracts were harvested for the dual luciferase assay (Promega, Wis.). The relative luciferase activity has been normalized with the internal control renella luciferase activity cotransfected with the promoter reporter construct, to monitor transfection efficiency.
We also determined whether induction of PLTP gene expression by topotecan is transcriptionally activated. Approximately 1.5 kb of the PLTP promoter sequence was obtained by the polymerase chain reaction (PCR) amplification of a human BAC clone (RP3-337018) containing the genomic sequence of PLTP. The PCR product consisting of the promoter region was sequenced verified and then subcloned into a luciferase reporter vector pGL2-Basic vector (Promega, Wis.) (FIG. 6A). […]

[4] = test system: phospholipid transfer protein (PLTP) gene; assay: DNA microarray expression profiling of topotecan-treated HepG2 cells; type: cell-based, human
Procedure: FIG. 1 is a DNA microarray presenting expression profiling of topotecan induced HepG2 cells. HepG2 cells were treated with 500 nM of topotecan in time course study for the indicated time points in the figure. RNAs were isolated, labeled and hybridized to the array. Scan image were analyzed using the Pathway and the Cluster softwares. The results of cluster analysis are shown in TreeView. Transition of color to red indicates the upregulation, and to green is the downregulation of gene expression.
FIG. 2 is a scanned image of the PLTP gene induced by topotecan. HepG2 cells were treated with topotecan in time-course and dose response studies. The microarrays were exposed to phosphorimage screen and the scanned images were analyzed with the Pathway software. Enlarged scanned images for the induction of PLTP gene with time and dose are shown.
FIG. 3 is a DNA microarray presenting expression profiling of topotecan induced HepG2 cells. HepG2 cells were treated with various concentrations of topotecan. RNAs were isolated, labeled and hybridized to the array. Scan images were analyzed using the Pathway and the Cluster softwares. The results of cluster analysis are shown in TreeView. A representative set of genes with altered expression was plotted in the line graphs. Transition of color to red indicates the upregulation, and to green is the downregulation of gene expression.
We have used DNA microarray to monitor the expression profiles of cells in response to anticancer drug treatments, and also comparing these profiles to those obtained from cancer cells that have been selected for resistance to the corresponding agents. […]
The HepG2 cells were either transiently treated with 500 nM of topotecan for various times (1–24 hrs), or with various doses of topotecan (1–1000 nM) for 24 hrs. […] The scanned images were processed and analyzed on the Pathways™ software. Tab delimited files generated from Pathways™ were imported into Microsoft Excel® for sorting by fold changes and intensity levels (radioactivity, cpm).

| SMILES | Cytotoxicity [1] | induction of PLTP expression (PLTP expression) | specificity of induction of PLTP promoter activity (PLTP promoter [2]) | also measured |
| --- | --- | --- | --- | --- |
| CCC1(O)C(=O)OCc2c1cc1n(c2=O)Cc2cc3c(N)c4c(cc3nc2-1)OCO4 [9-NH2-10,11-MD-CPT(R)] | Inactive | – | – | – |
| CCC1(O)C(=O)OCc2c1cc1n(c2=O)Cc2cc3c(N)c4c(cc3nc2-1)OCO4 [9-NH2-10,11-MD-CPT(S)] | Active | induced | – | – |
| N[C@@H](Cc1ccc(N(CCCl)CCCl)cc1)C(=O)O [melphalan] | – | – | no significant stimulation | – |
| CCc1c2c(nc3ccc(OC(=O)N4CCC(N5CCCCC5)CC4)cc13)-c1cc3c(c(=O)n1C2)COC(=O)[C@]3(O)CC [Irinotecan (CPT-11), Irinotecan] | – | failed to activate PLTP expression | – | – |
| CC[C@]1(O)C[C@@H]2CN(CCc3c([nH]c4ccccc34)[C@@](C(=O)OC)(c3cc4c(cc3OC)N(C)[C@H]3[C@@](O)(C(=O)OC)[C@H](OC(C)=O)[C@]5(CC)C=CCN6CC[C@]43[C@@H]65)C2)C1 [vinblastine] | – | failed to induced PLTP gene expression; also recorded: did not induce PLTP expression | – | – |
| CC[C@@]1(O)C(=O)OCc2c1cc1n(c2=O)Cc2cc3ccccc3nc2-1 [Camptothecin (CPT), Camptothecin] | Active | induced | – | – |
| CC(=O)O[C@H]1C(=O)[C@@]2(C)[C@H]([C@H](OC(=O)c3ccccc3)[C@]3(O)C[C@H](OC(=O)[C@H](O)[C@@H](NC(=O)c4ccccc4)c4ccccc4)C(C)=C1C3(C)C)[C@]1(OC(C)=O)CO[C@@H]1C[C@@H]2O [taxol] | – | – | no significant stimulation | – |
| CC[C@@]1(O)C(=O)OCc2c1cc1n(c2=O)Cc2cc3c(N)cccc3nc2-1 [9-NH2-CPT(S)] | Active | induced | – | – |
| CC[C@@]1(O)C(=O)OCc2c1cc1n(c2=O)Cc2cc3c(CN(C)C)c(O)ccc3nc2-1 [topotecan] | – | induced | specific for topotecan | PLTP promoter activity at the highest dose (PLTP promoter [3]; 1 μM): inhibition of the promoter activity; transactivation of PLTP promoter, dose response (PLTP promoter [3]; various doses): transactivated by topotecan dose-dependently; PLTP expression at the highest dose (PLTP expression; 1 μM, 24 hrs): reversed; induction of PLTP expression, dose response (PLTP expression; 1–1000 nM, 24 hrs): dose dependent induction; also recorded: elevated with increasing doses; induction of PLTP gene expression ([4]; 500 nM topotecan, after 24 hrs of exposure): approximately 20 fold; onset of PLTP expression after exposure ([4]; 500 nM topotecan, time course): 10 to 15 h; induction of PLTP expression, dose response ([4]; 1–1000 nM, 24 hrs): elevated in a dose dependent manner; induction of PLTP promoter activity (PLTP promoter [2]; 500 nM, approximately 24 hours (FIG. 12)): approximately 20 fold |
